Source: the METLIN SMRT retention time set (Domingo-Almenara et al. 2019)

Test: gradient 5% acetonitrile 3 min, to 50% in 2 min, to 85% in 15 min, held 3 min, 100 µL/min
Conditions: column: Zorbax Extend-C18 2.1 x 50 mm; eluents: water / acetonitrile, 0.1% formic acid
Procedure, shortened: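 A Zorbax Extend-C18 column (2.1 × 50 mm, 1.8 μm) run at 100 μL/min with water and acetonitrile, both containing 0.1% formic acid, separated mixtures of ~100 pure standards. The HPLC was coupled to a quadrupole time-of-flight mass spectrometer operated in positive and negative ionization mode, with dead and dwell volumes of 40 μL and 900 μL. Each retention time was taken from a computationally picked adduct peak that was then manually inspected.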

| RP-LC retention time [s] | Compound |
| --- | --- |
| 871 | CC(C)N1C(=O)c2cccnc2Sc2cc(NC(=O)c3ccccc3Cl)ccc21 |
| 588 | O=C(NCc1ccccn1)C1CCN(c2nc3cccnc3s2)CC1 |
| 695 | O=C(NCc1c(F)cccc1F)C(=O)NCc1n[nH]c(=O)c2ccccc12 |
| 1140 | Cc1ccc(-c2noc(CN3N=NC4C(=O)N(c5ccc(C)c(C)c5)C(=O)C43)n2)cc1C (centres undefined) |
| 1050 | CCN1C(=O)COc2cc(-c3noc(C(=O)NC4CCCCCC4)n3)ccc21 |
| 720 | O=C(Cc1nnc2c(-c3nc(C4CC4)no3)cccn12)NC1CCCCCC1 |
| 991 | CCOc1cc(=O)n2c(c1C(=O)OCc1ccc(Cl)cc1)CCCCC2 |
| 1060 | COc1ccc(N2CCN(c3cc(SCC(=O)Nc4cc(C)cc(C)c4)ncn3)CC2)cc1 |
| 758 | COCc1noc(CC2CCOC3(CCN(C(=O)NC4CCCCC4)CC3)C2)n1 (centres undefined) |
| 761 | Cc1cccc(NC(=O)NCCn2c(C(F)(F)F)nc3cccnc32)c1 |
| 987 | CCn1cc(-c2nc(C(=O)NCc3ccccc3F)cs2)c2cccnc21 |
| 796 | O=C(Nc1ccccc1)C1CC(=O)N(CCc2c[nH]c3ccc(F)cc23)C1 (centres undefined) |
| 735 | CCOC(=O)c1c(C)[nH]c(C)c1S(=O)(=O)N1CCC(C(=O)NC2CCCC2)CC1 |
| 1010 | O=C(CS(=O)Cc1cnn(-c2ccccc2)c1-n1cccc1)N1CCC(Cc2ccccc2)CC1 (centres undefined) |
| 953 | CCOC(=O)C1CCN(c2nnc(-c3nc(C4CC4)no3)c3ccccc23)CC1 |
| 670 | COC(=O)c1ccc2c(=O)n(-c3ccc(Cl)cc3)c(N3CCCN(C)CC3)nc2c1 |
| 882 | O=c1n(Cc2cccc(Cl)c2)nc2c(S(=O)(=O)N3CCCC3)cccn12 |
| 988 | CCn1ccc2cc(S(=O)(=O)N3CCCC(C(=O)NCc4cc(OC)ccc4OC)C3)ccc21 (centres undefined) |
| 1040 | Cc1ccccc1N1CCN(c2ncc(C(=O)O)c(C)n2)CC1 |
| 1100 | CC(C)c1ccc(N2CC(c3nc(-c4ccc5c(c4)OCO5)no3)CC2=O)cc1 (centres undefined) |
| 719 | N#CCNC(=O)c1ccc(-c2ccnc(Nc3ccc(N4CCOCC4)cc3)n2)cc1 |
| 889 | O=C(Nc1ccccc1F)N1CCC(CCNC(=O)C2(c3ccccc3)CC2)CC1 |

| RP-LC retention time [s] | Compound |
| --- | --- |
| 803 | CN(Cc1ccco1)C(=O)C1CCN(S(=O)(=O)c2ccc3c(c2)sc(=O)n3C)CC1 |
| 954 | COc1ccc(-c2nnc(Cc3nc(-c4ccc(F)cc4)no3)o2)cc1 |
| 672 | Cc1cc(C)cc(Nc2c(C(=O)N3CCCC(C)C3)cnc3nc(C)ccc23)c1 (centres undefined) |
| 894 | Cc1ccc(C2=NC3(CCN(C(=O)CSc4ccccc4)CC3)ON2)cc1 |
| 734 | O=C(Cc1cccs1)N1CCC(COc2ccc(C(=O)N3CCOCC3)cc2)CC1 |
| 670 | CS(=O)(=O)N(C1CCOCC1)C1CN(C(=O)Nc2ccccc2F)C1 |
| 592 | Cc1cc(N2CCN(C)CC2)nc2ccc(NC(=S)N(C)Cc3ccccc3)cc12 |
| 760 | COc1cccc(NC(=O)N2CCC3(C2)C(=O)N(C)c2ccccc23)c1 (centres undefined) |
| 979 | Cc1ccc(OC(=O)c2cc3c(C)nn(-c4ccccc4)c3s2)cc1C |
| 1100 | CSc1ccc(-c2noc(Cn3c(=O)n(-c4ccc(Cl)cc4)c(=O)c4sccc43)n2)cc1 |
| 769 | CCc1ccc(S(=O)(=O)N2CCCC(Cn3c(C)nc4cccnc43)C2)cc1 (centres undefined) |
| 1060 | CCc1ccc(-n2ncc3c(=O)n(Cc4nc(-c5ccc(OC)c(OC)c5)no4)cnc32)cc1 |
| 1170 | CCN1C(=O)C2(CCN(S(=O)(=O)c3ccc4c(c3)CCC4)CC2)c2ccccc21 |
| 1000 | COCCn1cc2c3c(cccc31)CN(C(=O)c1ccc(Cl)cc1)CC2 |
| 916 | CCn1ccc2sc(C)c(C(=O)NCc3ccc(F)cc3Cl)c2c1=O |
| 745 | CCC(C)(C)NC(=O)C1CCCN1S(=O)(=O)c1cc2c(cc1C)NC(=O)CO2 (centres undefined) |
| 790 | CCCCN1CC(=O)N(c2cccc(Cl)c2)[C@@H]2CS(=O)(=O)C[C@@H]21 |
| 739 | Cc1nn(-c2ccccc2)c(C)c1C=NN1CCN(Cc2ccccc2)CC1 |
| 1000 | Cc1ccc(N2CC(c3noc(-c4cc(F)ccc4F)n3)CC2=O)cc1 (centres undefined) |
| 681 | CC1CCN(C(=O)c2cc(S(=O)(=O)N3CCC(C(=O)NC4CC4)CC3)cn2C)CC1 |
| 926 | COc1ccccc1NC(=O)c1ccc(NS(=O)(=O)c2cc(C)ccc2C)cc1 |
| 796 | CCC(=O)N1CCCN(C2=NS(=O)(=O)C(c3ccc(CC)cc3)=C2C)CC1 |

| RP-LC retention time [s] | Compound |
| --- | --- |
| 628 | CC(=O)Nc1onc(C)c1-c1ccc(C)c(S(=O)(=O)N2CCN(c3ccccn3)CC2)c1 |
| 732 | Cc1nc(-c2cc3cccc(C)c3nc2N2CCN(c3ccc(F)cc3)CC2)no1 |
| 754 | CCNc1nc(C)cc(N2CCN(S(=O)(=O)c3cccc(C(F)(F)F)c3)CC2)n1 |
| 1100 | COc1ccc(CCC(=O)Nc2nc(-c3ccc(F)cc3F)cs2)cc1 |
| 584 | CCC[C@@H]1C[C@@H](C(=O)N[C@@H]([C@H]2O[C@H](SC)[C@@H](O)[C@@H](O)[C@H]2O)[C@@H](C)O)N(C)C1 |
| 1080 | Cc1sc2ncnc(SCC(=O)Nc3nc(-c4ccccc4)ns3)c2c1C |
| 701 | CC(C(=O)N1CC(n2cc(COCC3CC3)nn2)C1)c1ccccc1 (centres undefined) |
| 793 | CC(C)CC(=O)N1CCc2cc(CNS(=O)(=O)c3ccc4c(c3)CC(=O)N4C)ccc21 |
| 593 | Cc1ccc2c(Nc3cc(F)cc(F)c3)c(C(=O)N3CCOCC3)cnc2n1 |
| 953 | c1ccc(-c2nc3nc4c(c(Nc5ccc6c(c5)OCO6)n3n2)CCCC4)cc1 |
| 811 | Cc1ccc(Nc2nc(C)cc(N3CCN(C(=O)Nc4ccc(F)c(Cl)c4)CC3)n2)cc1 |
| 848 | COc1ccc(-n2ccnc(NC(=O)Nc3ccc(F)cc3)c2=O)cc1OC |
| 767 | COc1ccc(N2CCCS2(=O)=O)cc1NC(=O)c1ccc(Br)o1 |
| 937 | O=C(Nc1ccc(N2CCN(C3CCCC3)C2=O)nc1)c1ccc(Cl)cc1 |
| 850 | Cc1cc(C(=O)NC(C)c2ccccc2)n(-c2ccccc2)n1 (centres undefined) |
| 637 | O=C(C1CCCCC1)N1CCC(F)(C(=O)NC2CC2)CC1 |
| 967 | CCCCc1ccc(NC(=O)CSc2cc(N3CCC(C(=O)NCCC)CC3)ncn2)cc1 |
| 1070 | CCn1cc(-c2nc(C)c(C(=O)Nc3cc(F)ccc3F)s2)c2cccnc21 |
| 833 | Cc1nc(-c2noc(-c3ccncc3)n2)cn1CC(=O)Nc1ccc(F)cc1 |
| 660 | COc1ccc(Br)cc1C1C(C(=O)N2CCOCC2)=C(C)NC2=C1C(=O)CCC2 (centres undefined) |
